Data published in PubChem BioAssay (NCI).
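Each compound was tested at five concentrations against cells in 96-well plates for 48 hours. TGI: concentration producing complete growth inhibition.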

How the values were obtained:
Experiment in all cases: DTP human tumour cell line panel, 48 h
786-0 renal = system: 786-0 renal
A498 renal = system: A498 renal
A549 NSCLC = system: A549 NSCLC
ACHN renal = system: ACHN renal
BT-549 breast = system: BT-549 breast
CAKI-1 renal = system: CAKI-1 renal
CCRF-CEM leukemia = system: CCRF-CEM leukemia
COLO 205 colon = system: COLO 205 colon
DU-145 prostate = system: DU-145 prostate
EKVX NSCLC = system: EKVX NSCLC
HCT-116 colon = system: HCT-116 colon
HCT-15 colon = system: HCT-15 colon
HL-60(TB) leukemia = system: HL-60(TB) leukemia
HOP-62 NSCLC = system: HOP-62 NSCLC
HOP-92 NSCLC = system: HOP-92 NSCLC
HS 578T breast = system: HS 578T breast
HT29 colon = system: HT29 colon
IGROV1 ovarian = system: IGROV1 ovarian
K-562 leukemia = system: K-562 leukemia
KM12 colon = system: KM12 colon
LOX IMVI melanoma = system: LOX IMVI melanoma
M14 melanoma = system: M14 melanoma
MALME-3M melanoma = system: MALME-3M melanoma
MCF7 breast = system: MCF7 breast
MDA-MB-231 breast = system: MDA-MB-231 breast
MDA-MB-435 = system: MDA-MB-435
MDA-N = system: MDA-N
MOLT-4 leukemia = system: MOLT-4 leukemia
NCI-H226 lung = system: NCI-H226 lung
NCI-H23 lung = system: NCI-H23 lung
NCI-H460 lung = system: NCI-H460 lung
NCI-H522 lung = system: NCI-H522 lung
NCI/ADR-RES ovarian = system: NCI/ADR-RES ovarian
OVCAR-3 ovarian = system: OVCAR-3 ovarian
OVCAR-4 ovarian = system: OVCAR-4 ovarian
PC-3 prostate = system: PC-3 prostate
RPMI-8226 leukemia = system: RPMI-8226 leukemia
RXF 393 renal = system: RXF 393 renal
SF-268 CNS = system: SF-268 CNS
SF-295 CNS = system: SF-295 CNS
SF-539 CNS = system: SF-539 CNS
SK-MEL-2 melanoma = system: SK-MEL-2 melanoma
SK-MEL-28 melanoma = system: SK-MEL-28 melanoma
SK-MEL-5 melanoma = system: SK-MEL-5 melanoma
SK-OV-3 ovarian = system: SK-OV-3 ovarian
SN12C renal = system: SN12C renal
SNB-19 CNS = system: SNB-19 CNS
SR leukemia = system: SR leukemia
SW-620 colon = system: SW-620 colon
T-47D breast = system: T-47D breast
TK-10 renal = system: TK-10 renal
U251 CNS = system: U251 CNS
UACC-257 melanoma = system: UACC-257 melanoma
UACC-62 melanoma = system: UACC-62 melanoma
UO-31 renal = system: UO-31 renal
HCC-2998 colon = system: HCC-2998 colon
OVCAR-5 ovarian = system: OVCAR-5 ovarian
OVCAR-8 ovarian = system: OVCAR-8 ovarian
SNB-75 CNS = system: SNB-75 CNS

COc1ccc(/C=C2\C[C@H]3[C@@H]4CC=C5C[C@@H](O)CC[C@]5(C)[C@H]4CC[C@]3(C)\C2=N\O)cc1
TGI (786-0 renal): 44.3 µM | TGI (A498 renal): 71.7 µM | TGI (A549 NSCLC): > 100 µM | TGI (ACHN renal): > 100 µM | TGI (BT-549 breast): 36.5 µM | TGI (CAKI-1 renal): 19.3 µM | TGI (CCRF-CEM leukemia): > 100 µM | TGI (COLO 205 colon): 29 µM | TGI (DU-145 prostate): 71.5 µM | TGI (EKVX NSCLC): 8.78 µM | TGI (HCT-116 colon): 29.3 µM | TGI (HCT-15 colon): > 100 µM | TGI (HL-60(TB) leukemia): 24.8 µM | TGI (HOP-62 NSCLC): > 100 µM | TGI (HOP-92 NSCLC): > 100 µM | TGI (HS 578T breast): 37.5 µM | TGI (HT29 colon): > 100 µM | TGI (IGROV1 ovarian): 96.2 µM | TGI (K-562 leukemia): 45.9 µM | TGI (KM12 colon): > 100 µM | TGI (LOX IMVI melanoma): 33.3 µM | TGI (M14 melanoma): 40.3 µM | TGI (MALME-3M melanoma): 76.6 µM | TGI (MCF7 breast): > 100 µM | TGI (MDA-MB-231 breast): > 100 µM | TGI (MDA-MB-435): > 100 µM | TGI (MDA-N): > 100 µM | TGI (MOLT-4 leukemia): 34.3 µM | TGI (NCI-H226 lung): 94.1 µM | TGI (NCI-H23 lung): > 100 µM | TGI (NCI-H460 lung): > 100 µM | TGI (NCI-H522 lung): 50 µM | TGI (NCI/ADR-RES ovarian): > 100 µM | TGI (OVCAR-3 ovarian): 29.7 µM | TGI (OVCAR-4 ovarian): > 100 µM | TGI (PC-3 prostate): > 100 µM | TGI (RPMI-8226 leukemia): 21.9 µM | TGI (RXF 393 renal): > 100 µM | TGI (SF-268 CNS): 46.2 µM | TGI (SF-295 CNS): 34.8 µM | TGI (SF-539 CNS): > 100 µM | TGI (SK-MEL-2 melanoma): 39.8 µM | TGI (SK-MEL-28 melanoma): 72.8 µM | TGI (SK-MEL-5 melanoma): 23.3 µM | TGI (SK-OV-3 ovarian): > 100 µM | TGI (SN12C renal): 44.4 µM | TGI (SNB-19 CNS): > 100 µM | TGI (SR leukemia): 19 µM | TGI (SW-620 colon): > 100 µM | TGI (T-47D breast): 4.68 µM | TGI (TK-10 renal): > 100 µM | TGI (U251 CNS): > 100 µM | TGI (UACC-257 melanoma): 45.7 µM | TGI (UACC-62 melanoma): 50.3 µM | TGI (UO-31 renal): 71.6 µM

CC1C(OS(=O)(=O)c2ccc3[nH]c(=S)sc3c2)CC2C3(C)CCC2(C(C)C(=O)O)C(O)C13 (configuration not stated)
TGI (786-0 renal): 56.8 µM | TGI (A498 renal): > 100 µM | TGI (A549 NSCLC): > 100 µM | TGI (ACHN renal): 31.8 µM | TGI (BT-549 breast): 66 µM | TGI (CAKI-1 renal): 64.3 µM | TGI (CCRF-CEM leukemia): 65.5 µM | TGI (COLO 205 colon): 38 µM | TGI (DU-145 prostate): 40.4 µM | TGI (EKVX NSCLC): > 100 µM | TGI (HCC-2998 colon): > 100 µM | TGI (HCT-116 colon): 27.3 µM | TGI (HCT-15 colon): 27.1 µM | TGI (HL-60(TB) leukemia): 58 µM | TGI (HOP-62 NSCLC): 66.5 µM | TGI (HOP-92 NSCLC): > 100 µM | TGI (HS 578T breast): > 100 µM | TGI (HT29 colon): 35.4 µM | TGI (IGROV1 ovarian): 35.8 µM | TGI (K-562 leukemia): > 100 µM | TGI (KM12 colon): 52.4 µM | TGI (M14 melanoma): 84.1 µM | TGI (MALME-3M melanoma): 83.8 µM | TGI (MCF7 breast): > 100 µM | TGI (MDA-MB-231 breast): > 100 µM | TGI (MDA-MB-435): 47.8 µM | TGI (MDA-N): 69.8 µM | TGI (MOLT-4 leukemia): > 100 µM | TGI (NCI-H226 lung): 60.4 µM | TGI (NCI-H23 lung): 38.3 µM | TGI (NCI-H460 lung): > 100 µM | TGI (NCI-H522 lung): 17.2 µM | TGI (NCI/ADR-RES ovarian): > 100 µM | TGI (OVCAR-3 ovarian): 42.5 µM | TGI (OVCAR-4 ovarian): 94.2 µM | TGI (OVCAR-5 ovarian): 93.3 µM | TGI (OVCAR-8 ovarian): 54.6 µM | TGI (PC-3 prostate): > 100 µM | TGI (RPMI-8226 leukemia): 40.8 µM | TGI (RXF 393 renal): 61.2 µM | TGI (SF-268 CNS): > 100 µM | TGI (SF-295 CNS): 95.1 µM | TGI (SF-539 CNS): 46 µM | TGI (SK-MEL-2 melanoma): 81.7 µM | TGI (SK-MEL-28 melanoma): > 100 µM | TGI (SK-MEL-5 melanoma): 34.5 µM | TGI (SK-OV-3 ovarian): > 100 µM | TGI (SN12C renal): > 100 µM | TGI (SNB-19 CNS): > 100 µM | TGI (SR leukemia): 64.8 µM | TGI (T-47D breast): 48.3 µM | TGI (TK-10 renal): > 100 µM | TGI (U251 CNS): 38.6 µM | TGI (UACC-257 melanoma): > 100 µM | TGI (UACC-62 melanoma): 63.3 µM | TGI (UO-31 renal): 39.8 µM

O=S(=O)(O)C(c1ccccc1)C(O)c1ccccc1 (configuration not stated)
TGI (786-0 renal): > 100 µM | TGI (A498 renal): > 100 µM | TGI (A549 NSCLC): > 100 µM | TGI (ACHN renal): > 100 µM | TGI (BT-549 breast): > 100 µM | TGI (CAKI-1 renal): > 100 µM | TGI (CCRF-CEM leukemia): > 100 µM | TGI (COLO 205 colon): > 100 µM | TGI (DU-145 prostate): > 100 µM | TGI (EKVX NSCLC): > 100 µM | TGI (HCT-116 colon): > 100 µM | TGI (HCT-15 colon): > 100 µM | TGI (HL-60(TB) leukemia): > 100 µM | TGI (HOP-62 NSCLC): > 100 µM | TGI (HOP-92 NSCLC): > 100 µM | TGI (HS 578T breast): > 100 µM | TGI (HT29 colon): > 100 µM | TGI (IGROV1 ovarian): > 100 µM | TGI (K-562 leukemia): > 100 µM | TGI (KM12 colon): > 100 µM | TGI (LOX IMVI melanoma): > 100 µM | TGI (M14 melanoma): > 100 µM | TGI (MALME-3M melanoma): > 100 µM | TGI (MCF7 breast): > 100 µM | TGI (MDA-MB-231 breast): > 100 µM | TGI (MDA-MB-435): > 100 µM | TGI (MDA-N): > 100 µM | TGI (NCI-H226 lung): > 100 µM | TGI (NCI-H23 lung): > 100 µM | TGI (NCI-H460 lung): > 100 µM | TGI (NCI-H522 lung): > 100 µM | TGI (NCI/ADR-RES ovarian): > 100 µM | TGI (OVCAR-3 ovarian): > 100 µM | TGI (OVCAR-4 ovarian): > 100 µM | TGI (OVCAR-5 ovarian): > 100 µM | TGI (OVCAR-8 ovarian): > 100 µM | TGI (PC-3 prostate): > 100 µM | TGI (RPMI-8226 leukemia): > 100 µM | TGI (RXF 393 renal): > 100 µM | TGI (SF-268 CNS): > 100 µM | TGI (SF-295 CNS): > 100 µM | TGI (SK-MEL-2 melanoma): > 100 µM | TGI (SK-MEL-28 melanoma): > 100 µM | TGI (SK-MEL-5 melanoma): > 100 µM | TGI (SK-OV-3 ovarian): > 100 µM | TGI (SN12C renal): > 100 µM | TGI (SNB-19 CNS): > 100 µM | TGI (SNB-75 CNS): > 100 µM | TGI (SR leukemia): > 100 µM | TGI (SW-620 colon): > 100 µM | TGI (T-47D breast): > 100 µM | TGI (TK-10 renal): > 100 µM | TGI (U251 CNS): > 100 µM | TGI (UACC-257 melanoma): > 100 µM | TGI (UACC-62 melanoma): > 100 µM | TGI (UO-31 renal): > 100 µM
